How the values were obtained:
[1] = (§1) Cytotoxicity in African green monkey Vero E6 cells […] by Neutral red release assay; format: toxicity, cell-based, Vero C1008; settings: chlorocebus sabaeus, Vero E6 cells
[2] = system: SARS-CoV-2; assay: Antiviral activity against SARS-CoV-2 infected in African green monkey Vero E6 cells assessed as reduction in viral replication preincubated with compound followed by viral infection for 1 hr measured after 25 to 26 hrs by ELISA; format: functional, organism-based, Severe acute respiratory syndrome coronavirus 2
[3] = biological target: Replicase polyprotein 1ab (Severe acute respiratory syndrome coronavirus 2, UniProt P0DTD1); assay: Inhibition of SARS CoV-2 MPro using MCA-AVLQSGFR-Lys(Dnp)-Lys-NH2 as substrate preincubated for 10 mins followed by substrate addition measured for 10 mins by FRET assay
[4] = system: Vero C1008; assay: as §1; format: toxicity, cell-based; settings: chlorocebus sabaeus, vero c1008, 600 h; 600 h
[5] = Tmax in Sprague-Dawley rat at 2 mg/kg, iv measured for 0.033 to 24 hrs by LC-MS/MS analysis; format: ADME, organism-based; settings: in vivo, time 0.033-24 hrs
[6] = Tmax in Sprague-Dawley rat at 10 mg/kg, po measured for 0.083 to 24 hrs by LC-MS/MS analysis; format: ADME, organism-based; settings: in vivo, time 0.083-24 hrs
[7] = AUC (0 to t) in Sprague-Dawley rat at 10 mg/kg, po measured for 0.083 to 24 hrs by LC-MS/MS analysis; format: ADME, organism-based; set-up: time 0.083-24 hrs, dose 10 mg/kg, route po; settings: in vivo
[8] = Half life in Sprague-Dawley rat at 2 mg/kg, iv measured for 0.033 to 24 hrs by LC-MS/MS analysis; format: ADME, organism-based; settings: in vivo, time 0.033-24 hrs
[9] = Half life in Sprague-Dawley rat at 10 mg/kg, po measured for 0.083 to 24 hrs by LC-MS/MS analysis; format: ADME, organism-based; settings: in vivo, time 0.083-24 hrs
[10] = Volume of distribution in Sprague-Dawley rat at 2 mg/kg, iv measured for 0.033 to 24 hrs by LC-MS/MS analysis; format: ADME, organism-based; settings: in vivo, time 0.033-24 hrs
[11] = Clearance in Sprague-Dawley rat at 2 mg/kg, iv measured for 0.033 to 24 hrs by LC-MS/MS analysis; format: ADME, organism-based; settings: in vivo, time 0.033-24 hrs
[12] = Cmax in Sprague-Dawley rat at 2 mg/kg, iv measured for 0.033 to 24 hrs by LC-MS/MS analysis; format: ADME, organism-based; set-up: time upper 24 hrs, dose 2 mg/kg, time lower 0.033 hrs, route iv; settings: in vivo
[13] = AUC (0 to t) in Sprague-Dawley rat at 2 mg/kg, iv measured for 0.033 to 24 hrs by LC-MS/MS analysis; format: ADME, organism-based; set-up: time lower 0.033 hrs, dose 2 mg/kg, time upper 24 hrs, route iv; settings: in vivo
[14] = AUC (0 to infinity) in Sprague-Dawley rat at 2 mg/kg, iv measured for 0.033 to 24 hrs by LC-MS/MS analysis; format: ADME, organism-based; set-up: time 0.033-24 hrs, dose 2 mg/kg, route iv; settings: in vivo
[15] = AUC (0 to infinity) in Sprague-Dawley rat at 10 mg/kg, po measured for 0.083 to 24 hrs by LC-MS/MS analysis; format: ADME, organism-based; set-up: time 0.083-24 hrs, dose 10 mg/kg, route po; settings: in vivo
[16] = Oral bioavailability in Sprague-Dawley rat at 10 mg/kg measured for 0.083 to 24 hrs by LC-MS/MS analysis; format: ADME, organism-based; settings: in vivo, time 0.083-24 hrs
[17] = Cmax in Sprague-Dawley rat at 10 mg/kg, po measured for 0.083 to 24 hrs by LC-MS/MS analysis; format: ADME, organism-based; set-up: time lower 0.083 hrs, dose 10 mg/kg, time upper 24 hrs, route po; settings: in vivo
[18] = system: SARS-CoV-2; assay: Antiviral activity against SARS-CoV-2 USA_WA1/2020 infected in African green monkey Vero E6 cells expressing hACE2 assessed as reduction in virus-induced cytopathic effect incubated for 3 days in presence of P-gp efflux inhibitor by Cell Titer-Glo assay; format: functional, organism-based; settings: Severe acute respiratory syndrome coronavirus 2, USA_WA1/2020, Vero C1008, 72 h
[19] = system: SARS-CoV-2; assay: Antiviral activity against SARS CoV-2 Delta infected in African green monkey Vero E6 cells assessed as reduction in viral plaque incubated for 3 days; format: functional, organism-based; settings: Severe acute respiratory syndrome coronavirus 2, Delta, Vero C1008, 72 h
[20] = system: SARS-CoV-2; assay: Antiviral activity against wild-type SARS CoV-2 infected in African green monkey Vero E6 cells assessed as reduction in viral plaque incubated for 3 days; format: functional, organism-based; settings: Severe acute respiratory syndrome coronavirus 2, Vero C1008, 72 h
[21] = system: SARS-CoV-2; assay: Antiviral activity against SARS CoV-2 Omicron […] infected in African green monkey Vero E6 cells assessed as reduction in viral plaque incubated for 3 days; format: functional, organism-based; settings: Severe acute respiratory syndrome coronavirus 2, Vero C1008, 72 h
[22] = system: SARS-CoV-2; assay: Antiviral activity against SARS CoV-2 Alpha infected in African green monkey Vero E6 cells assessed as reduction in viral plaque incubated for 3 days; format: functional, organism-based; settings: Severe acute respiratory syndrome coronavirus 2, Alpha, Vero C1008, 72 h
[23] = Severe acute respiratory syndrome coronavirus 2, Vero C1008

Structure (SMILES) | CC50 at 600 h [1] [nM] | EC50 [2, 23] [nM] | IC50 [3] [nM] | other results
CC(C)(C)[C@H](NC(=O)C(F)(F)F)C(=O)N1C[C@H]2[C@@H]([C@H]1C(=O)N[C@H](C#N)C[C@@H]1CCNC1=O)C2(C)C | > 100000 |  |  | 
O=C(NCc1cccs1)[C@@H]1CN(C(=O)c2cccnc2)CCN1c1ccc(Cl)c(Cl)c1 | 100000 | 1300 |  | 
O=C(NS(=O)(=O)c1cccs1)[C@@H]1CN(C(=O)c2cccnc2)CCN1c1ccc(Cl)c(Cl)c1 |  |  | 9500 | 
COc1ccncc1C(=O)N1CCN(c2ccc(Cl)c(Cl)c2)[C@H](C(=O)NCc2ccc(F)s2)C1 [listing 1 of 2 here] |  |  | 350 | EC50 ([2]; vero e6): 1400 nM; CC50 [4]: 100000 nM
CN(Cc1cccs1)C(=O)[C@@H]1CN(C(=O)c2cccnc2)CCN1c1ccc(Cl)c(Cl)c1 |  |  | 1300 | 
O=C(NCc1cccs1)[C@@H]1CN(C(=O)c2cncc(F)c2)CCN1c1ccc(Cl)c(Cl)c1 | > 100000 | 1500 | 350 | 
O=C(NCc1ccc(Br)s1)[C@@H]1CN(C(=O)c2cccnc2)CCN1c1ccc(Cl)c(Cl)c1 |  |  | 1800 | 
COc1ccncc1C(=O)N1CCN(c2ccc(Cl)c(Cl)c2)[C@H](C(=O)Nc2ccc(OC(F)F)cc2)C1 |  |  | 480 | 
O=C(NCc1cccs1)[C@@H]1CN(C(=O)c2cnccc2Cl)CCN1c1ccc(Cl)c(Cl)c1 | > 100000 | 3100 | 320 | 
COc1ccncc1C(=O)N1CCN(c2ccc(Cl)c(Cl)c2)[C@H](C(=O)NCc2cccs2)C1.Cl |  |  | 170 | Tmax [5]: 1.8 min; Tmax [6]: 30 min; EC50 ([2]; vero e6): 530 nM; AUC(0-t) [7]: 202 ng·h/mL; half-life [8]: 18.6 min; half-life [9]: 86.4 min; Vd [10]: 2.07 L/kg; clearance [11]: 77.4 mL/min/kg; Cmax [12]: 1240 ng/mL; AUC(0-t) [13]: 428 ng·h/mL; AUC(0-inf) [14]: 431 ng·h/mL; AUC(0-inf) [15]: 226 ng·h/mL; bioavailability [16]: 10.5%; Cmax [17]: 81.6 ng/mL
O=C(NCc1ccc(F)s1)[C@@H]1CN(C(=O)c2cccnc2)CCN1c1ccc(Cl)c(Cl)c1 | 79000 | 1500 | 400 | 
O=C(NCc1cccs1)[C@@H]1CN(C(=O)c2cncc(O)c2)CCN1c1ccc(Cl)c(Cl)c1 |  | 15000 | 440 | 
O=C(NCc1cccs1)[C@@H]1CN(C(=O)c2cc(=O)[nH]c3ccccc23)CCN1c1ccc(Cl)c(Cl)c1 | > 100000 | 5400 | 270 | 
COc1cccc2[nH]c(C(=O)N[C@@H](CC(C)C)C(=O)N[C@H](C[C@@H]3CCNC3=O)C(=O)CO)cc12 |  |  |  | EC50 [18]: 220 nM
COc1ccncc1C(=O)N1CCN(c2ccc(Cl)c(Cl)c2)[C@H](C(=O)NCc2cccs2)C1 | > 100000 | 780 |  | 
COc1ccc(NC(=O)[C@@H]2CN(C(=O)c3cccnc3)CCN2c2ccc(Cl)c(Cl)c2)cc1 | 95000 | 740 | 200 | 
O=C(NCc1cccs1)[C@@H]1CN(C(=O)c2cncc3cc[nH]c23)CCN1c1ccc(Cl)c(Cl)c1 [listing 1 of 2 here] |  |  | 210 | EC50 ([2]; vero e6): 530 nM; CC50 [4]: 42000 nM; EC50 [19]: 220 nM; EC50 [20]: 240 nM; EC50 [21]: 80 nM; EC50 [22]: 130 nM
COc1ccncc1C(=O)N1CCN(c2ccc(Cl)c(Cl)c2)[C@H](C(=O)Nc2cc(F)c(OC)c(F)c2)C1 |  | 3100 | 430 | 
COc1ccncc1C(=O)N1CCN(c2ccc(Cl)c(Cl)c2)[C@H](C(=O)NCc2ccc(F)s2)C1 [listing 2 of 2 here] | > 100000 | 1500 | 410 | 
COc1cc(OC)c(NC(=O)[C@@H]2CN(C(=O)c3cnccc3OC)CCN2c2ccc(Cl)c(Cl)c2)cc1F | 79000 | 1500 | 400 | 
O=C(NCc1cccs1)[C@@H]1CN(C(=O)c2cncc3cc[nH]c23)CCN1c1ccc(Cl)c(Cl)c1 [listing 2 of 2 here] | 36000 | 540 | 250 | 

From ChEMBL document CHEMBL5375961, “Design, Synthesis, and Biological Evaluation of Trisubstituted Piperazine Derivatives as Noncovalent Severe Acute Respiratory Syndrome Coronavirus 2 Main Protease Inhibitors with Improved Antiviral Activity and Favorable Druggability” (J Med Chem, 2023)
